For this assay, the system named is BDF1 mice, P388 leukemia ip, median survival T/C. The experiment in a line: NCI In Vivo Anticancer Drug Screen. Data for tumor model P388 Leukemia (intraperitoneal) in B6D2F1 (BDF1) mice. Particulars: endpoint: median survival time, higher = longer survival. The protocol: The antitumor activity of compounds was measured in mice bearing transplantable tumors. Survival or tumor size were measured and the results are expressed as the measurement made in the treated group (T) divided by the measurement made in the vehicle treated control group (C). The tumor model used in this assay is P388 Leukemia (intraperitoneal) in B6D2F1 (BDF1) mice

Where [1] appears, read: dose: 12.5 mg/kg/injection, schedule: Q01DX009 (ip), vehicle: saline.
Where [2] appears, read: dose: 25.0 mg/kg/injection, schedule: Q01DX009 (ip), vehicle: saline.
Where [3] appears, read: dose: 25.0 mg/kg/injection, schedule: Q01DX009 (ip), vehicle: saline with Tween-80.
The mark [4] stands for this setting: dose: 50.0 mg/kg/injection, schedule: Q01DX009 (ip), vehicle: saline with Tween-80.
Setting [5] is: dose: 100.0 mg/kg/injection, schedule: Q01DX009 (ip), vehicle: saline with Tween-80.
Where [6] appears, read: dose: 50.0 mg/kg/injection, schedule: Q04DX003 (ip), vehicle: saline with Tween-80.
Setting [7] is: dose: 6.25 mg/kg/injection, schedule: Q01DX009 (ip), vehicle: water.
Setting [8] is: dose: 12.5 mg/kg/injection, schedule: Q01DX009 (ip), vehicle: water.
Setting [9] is: dose: 25.0 mg/kg/injection, schedule: Q01DX009 (ip), vehicle: water.
[10] abbreviates: dose: 25.0 mg/kg/injection, schedule: Q04DX003 (ip), vehicle: water.
Where [11] appears, read: dose: 50.0 mg/kg/injection, schedule: Q01DX009 (ip), vehicle: water.
[12] abbreviates: dose: 50.0 mg/kg/injection, schedule: Q04DX003 (ip), vehicle: water.
[13] abbreviates: dose: 100.0 mg/kg/injection, schedule: Q01DX009 (ip), vehicle: water.
The mark [14] stands for this setting: dose: 100.0 mg/kg/injection, schedule: Q04DX003 (ip), vehicle: water.
[15] abbreviates: dose: 100.0 mg/kg/injection, schedule: Q04DX003 (ip), vehicle: Klucel (hydroxypropylcellulose) (HPC).
The mark [16] stands for this setting: dose: 200.0 mg/kg/injection, schedule: Q04DX003 (ip), vehicle: Klucel (hydroxypropylcellulose) (HPC).
[17] abbreviates: dose: 400.0 mg/kg/injection, schedule: Q04DX003 (ip), vehicle: Klucel (hydroxypropylcellulose) (HPC).
[18] abbreviates: dose: 100.0 mg/kg/injection, schedule: Q01DX005 (ip), vehicle: saline with Tween-80.
[19] abbreviates: dose: 200.0 mg/kg/injection, schedule: Q01DX009 (ip), vehicle: saline with Tween-80.

Several values for one entry are separate records, joined by “and”; a condition that tells them apart may be missing. Equal values may be shown once. Toxic doses and inconclusive results are not listed.

On to `O=c1cc(CO)occ1O.O=c1cc(CO)occ1O.[O]=[V]`, for which the T/C is 105 % of control (dose: 6.25 mg/kg/injection, schedule: Q01DX009 (ip), vehicle: saline); 94 % of control under setting [1]; 100 % of control under setting [2].
As for `CC(=O)N1c2ccccc2Sc2cc(C(O)(C(F)(F)F)C(F)(F)F)ccc21`, the T/C was 86 % of control under setting [3], 90 % of control under setting [4] and 90 % of control under setting [5].
Turning to `CC1=CC(=O)c2c(O)ccc(O)c2C1=O`, the T/C reads like this: (dose: 1.25 mg/kg/injection, schedule: Q01DX009 (ip), vehicle: alcohol) 114 % of control; (dose: 2.5 mg/kg/injection, schedule: Q01DX009 (ip), vehicle: alcohol) 122 % of control.
`O=C1C(=C(C(F)(F)F)C(F)(F)F)C2CCC1C2` (stereo not drawn): the T/C (dose: 6.25 mg/kg/injection, schedule: Q04DX003 (ip), vehicle: saline with Tween-80) is 110 % of control; the T/C (dose: 12.5 mg/kg/injection, schedule: Q04DX003 (ip), vehicle: saline with Tween-80) is 100 % of control; the T/C (dose: 25.0 mg/kg/injection, schedule: Q04DX003 (ip), vehicle: saline with Tween-80) was 90 % of control.
For `FC(F)(F)c1cccc(-c2nc3nc(Cl)c(Cl)nc3[nH]2)c1`, the T/C was 99 % of control under setting [3], 94 % of control under setting [4], 108 % of control under setting [6] and 103 % of control under setting [5].
As to `CC1CN(Cc2cccc(C#N)c2)CC(C)N1` (stereo not drawn), the T/C was 95 % of control under setting [7]; 110 % of control under setting [8]; 101 % of control under setting [9]; 101 % of control under setting [10]; 95 % of control under setting [11]; 100 % of control under setting [12]. Moreover, the T/C runs as follows: under setting [13], 110 % of control; under setting [14], 111 % of control.
As to `CCC(C#N)(c1ccccc1)c1ccccc1`, the T/C by setting is: (dose: 100.0 mg/kg/injection, schedule: Q01DX009 (ip), vehicle: Klucel (hydroxypropylcellulose) (HPC)) 90 % of control; under setting [15], 95 % of control; under setting [16], 95 % of control; (dose: 400.0 mg/kg/injection, schedule: Q01DX009 (ip), vehicle: Klucel (hydroxypropylcellulose) (HPC)) 100 % of control; under setting [17], 100 % of control.
As for `CCCCCCCCOC(=O)c1[nH]cnc1/N=N\N(C)C`, the T/C was 95 % of control (dose: 12.5 mg/kg/injection, schedule: Q01DX009 (ip), vehicle: Klucel (hydroxypropylcellulose) (HPC)); 95 % of control (dose: 25.0 mg/kg/injection, schedule: Q01DX009 (ip), vehicle: Klucel (hydroxypropylcellulose) (HPC)); 90 % of control (dose: 50.0 mg/kg/injection, schedule: Q01DX009 (ip), vehicle: Klucel (hydroxypropylcellulose) (HPC)).
Regarding `O=C1CN(c2ccccc2)CC(=O)N2Cc3ccccc3CN12`, under setting [18], the T/C was 101 % of control.
On to `c1cc2c3c(cccc3c1)N1C(=N2)Sc2nc3ccccc3nc21`, for which the T/C by setting is: under setting [4], 89 % of control; under setting [5], 89 % of control; under setting [19], 95 % of control.
Take `CCCCCCCCSC(=S)SCC(=O)O`: the T/C was 100 % of control under setting [4] and 100 % of control under setting [5].
Turning to `CNCCSS(=O)(=O)CCNC`, the T/C (dose: 100.0 mg/kg/injection, schedule: Q01DX005 (ip), vehicle: saline) was 94 % of control.
On to `NCCC(O)C(=O)NC1CC(N)C(OC2OC(CO)C(O)C(O)C2N)C(OC2OC(CO)C(O)C2O)C1O` (stereo not drawn), for which the T/C is 109 % of control under setting [1]; 109 % of control under setting [2]; 100 % of control (dose: 50.0 mg/kg/injection, schedule: Q01DX009 (ip), vehicle: saline).
As for `CCOC(=O)c1cnc(SCc2ccccc2Cl)nc1N1CC1`, the T/C was 108 % of control (dose: 10.6 mg/kg/injection, schedule: Q01DX009 (ip), vehicle: Klucel (hydroxypropylcellulose) (HPC)); 114 % of control (dose: 28.05 mg/kg/injection, schedule: Q01DX009 (ip), vehicle: Klucel (hydroxypropylcellulose) (HPC)); 152 % of control (dose: 63.75 mg/kg/injection, schedule: Q01DX009 (ip), vehicle: Klucel (hydroxypropylcellulose) (HPC)).
On to `Nc1nc(N)c2c(Cl)c(CNc3ccc(Cl)c(Cl)c3)ccc2n1`, for which the T/C (dose: 6.25 mg/kg/injection, schedule: Q01DX009 (ip), vehicle: saline with Tween-80) was 154 % of control; the T/C under setting [7] was 123 % of control; the T/C (dose: 12.5 mg/kg/injection, schedule: Q01DX009 (ip), vehicle: saline with Tween-80) was 169 % of control; the T/C under setting [8] is 179 % of control; the T/C under setting [9] is 203 % of control; the T/C under setting [10] was 116 % of control. The T/C by setting is: under setting [11], 88 % of control; under setting [12], 169 % of control; under setting [14], 153 % of control and 173 % of control; (dose: 300.0 mg/kg/injection, schedule: Q04DX003 (ip), vehicle: water) 86 % of control.
With `Cn1c(N)nc2nc[nH]c2c1=S`, the T/C was 91 % of control (dose: 10.0 mg/kg/injection, schedule: Q01DX010 (ip), vehicle: saline); 91 % of control and 95 % of control (dose: 20.0 mg/kg/injection, schedule: Q01DX010 (ip), vehicle: saline); 91 % of control and 100 % of control (dose: 40.0 mg/kg/injection, schedule: Q01DX010 (ip), vehicle: saline); 91 % of control and 95 % of control (dose: 80.0 mg/kg/injection, schedule: Q01DX010 (ip), vehicle: saline).
In the case of `COC(=O)c1cc(=O)nc(N/N=C/c2ccccc2)s1`, the T/C is, setting by setting: (dose: 50.0 mg/kg/injection, schedule: Q01DX005 (ip), vehicle: saline with Tween-80) 109 % of control; under setting [18], 110 % of control; (dose: 200.0 mg/kg/injection, schedule: Q01DX005 (ip), vehicle: saline with Tween-80) 109 % of control.
For `N=c1nc2n(cc1F)[C@@H]1O[C@H](CO)[C@@H](O)[C@@H]1O2`, the T/C is 153 % of control (dose: 64.0 mg/kg/injection, schedule: Q01DX005 (ip), vehicle: saline); 171 % of control (dose: 128.0 mg/kg/injection, schedule: Q01DX005 (ip), vehicle: saline); 209 % of control (dose: 256.0 mg/kg/injection, schedule: Q01DX005 (ip), vehicle: saline); 276 % of control (dose: 512.0 mg/kg/injection, schedule: Q01DX005 (ip), vehicle: saline); 86 % of control (dose: 768.0 mg/kg/injection, schedule: Q01DX005 (ip), vehicle: saline).
`CCCCCCCCC(O)CCCC` (stereo not drawn): the T/C is 91 % of control under setting [15], 91 % of control under setting [16] and 100 % of control under setting [17].
Turning to `Clc1ccc(-c2cc(=[N+]3CC[N+](=c4cc(-c5ccc(Cl)cc5)ss4)CC3)ss2)cc1`, the T/C is, setting by setting: under setting [12], 109 % of control; under setting [13], 121 % of control; under setting [14], 116 % of control; (dose: 200.0 mg/kg/injection, schedule: Q01DX009 (ip), vehicle: water) 111 % of control; (dose: 200.0 mg/kg/injection, schedule: Q04DX003 (ip), vehicle: water) 109 % of control.
For `CCN(CC)CCN1C(=O)CN=C(c2ccccn2)c2cc(Cl)ccc21`, the T/C by setting is: under setting [6], 95 % of control; (dose: 100.0 mg/kg/injection, schedule: Q04DX003 (ip), vehicle: saline with Tween-80) 100 % of control; (dose: 200.0 mg/kg/injection, schedule: Q04DX003 (ip), vehicle: saline with Tween-80) 105 % of control.
Turning to `Cc1cc(C)c(CN)cc1C`, the T/C was 100 % of control (dose: 5.0 mg/kg/injection, schedule: Q04DX003 (ip), vehicle: saline with Tween-80); 100 % of control (dose: 10.0 mg/kg/injection, schedule: Q04DX003 (ip), vehicle: saline with Tween-80); 100 % of control (dose: 20.0 mg/kg/injection, schedule: Q04DX003 (ip), vehicle: saline with Tween-80).
With `CC(C)CCOC(=O)CN(CC(=O)OCCC(C)C)c1ccccc1`, the T/C runs as follows: under setting [5], 100 % of control; under setting [19], 100 % of control; (dose: 400.0 mg/kg/injection, schedule: Q01DX009 (ip), vehicle: saline with Tween-80) 95 % of control.

These data come from PubChem BioAssay AID328 (DTP/NCI, 2004).
